{
  "source": "patent US20070274915A1",
  "about": "“Modulation Of Anergy And Methods For isolating Anergy-Modulating Compounds” (priority 2003, published 2007)",
  "key": {"AND T cell blasts": {"test_system": "AND T cell blasts", "test": "Stability of mature immunological synapses on lipid bilayers after phospholipase inhibitors", "format": "cell-based", "procedure": "(§1) Planar bilayers were prepared essentially as described in (Grakoui et al., Science 285, 221-7 (1999)), except that the MCC88-103 peptide was loaded on the GPI-IEk for 24 hours. Bilayers were prepared using Oregon green labeled GPI-IEk and Cy5 labeled GPI-ICAM-1 in parallel plate flow cells (Bioptechs). Control and ionomycin treated cells were injected into the flow cell at a density of 10^6 cells/ml. Areas of bilayers where cells were forming synapses were imaged using FITC and Cy5 optics on an Olympus IX-70 inverted microscope equipped with a amamtsu ORCA-ER digital camera and a Xenon-arc lamp as a light source for fluorescence microscopy. […] Bright field, interference reflection (IRM) and fluorescence images were collected and processed using the Metamorph software. The background from the fluorescence images was subtracted using the produce background correction image function which is based on median filtering to subtract background that is nonuniform. Percentage of cells adhering were analyzed by comparing bright field and IRM images.\nExperiments using phospholipase inhibitors were performed using AND T cell blasts (day 8). […] After 60 minutes, fields containing stable immunological synapses with central MHC clusters (green) and complete ICAM-1 rings (red) were imaged and the locations recorded using an automated stage and IPLab software. […]"}, "D5 T cells": {"test_system": "D5 T cells", "test": "Ionomycin-induced anergy in D5 Th1 cells, immunoblot of signaling proteins and E3 ligases", "format": "cell-based, murine", "procedure": "(§2) The murine D5 (Ar-5) Th1 cell clone was grown as previously described (F. Macian et al., Cell 109, 719-31 (2002). CD4+ cells were isolated from spleen and lymph nodes of DO11.10 or 2B4 TCR-transgenic mice using positive selection with anti-CD4 magnetic beads (Dynal), and differentiated into Th1 cells for 2 weeks using standard protocols (id.). Anergy was induced by treating primary Th1 cells or the D5 Th1 clone (10^6 cells/ml) with 1 μM ionomycin for 16 hours, Cyclosporin A was included in some experiments at a concentration of 2 μM. The cells were then washed to remove the ionomycin and incubated at higher cell density (˜3×10^6 cells/ml) for 1-2 hours at 37 C. In the experiment of FIG. 14, a high-density incubation step was included. The extent of anergy induction was evaluated by intracellular cytokine staining or in standard proliferation assays (id.). Restimulation of D5 cells was done with 1 μg/ml anti-CD3 with or without 2.5 μg/ml anti-CD28 or with 20 nM PMA or 1 μM Ionomycin or both. HEK 293 cells were grown and transfected with Ca2+ phosphate using standard protocols.\nD5 cells were extracted at 10^6 cells/10 μl in RIPA buffer (20 mM Tris pH 7.5, 250 mM NaCl, 1 mM DTT, 10 mM MgCl2, 1% Nonidet P-40, 0.1% SDS, 0.5% sodium deoxycholate) supplemented with protease and phosphatase inhibitors (1 mM PMSF, 25 μg/ml aprotinin, 25 μg/ml leupeptin, 10 mM NaF, 8 mM β glycerophosphate, 0,1 mM sodium ortho vanadate). For assessing protein levels in cell extracts, 5-30 μl of RIPA extracts were separated on 9-12% SDS-polyacrylamide gels, and proteins were electrotransferred onto nitrocellulose membranes. For immunoprecipitations, 500-1000 μl of RIPA cell extracts were used. For coimmunoprecipitations from lysates of transfected HEK 293 cells, cells from one 10 cm dish were lysed in 50 mM Hepes pH 7.5, 100 mM NaCl, 1 mM EDTA, 0,5% NP-40 and 10% glycerol including phosphatase and protease inhibitors. Lysates were precleared with either protein A- or protein G-Sepharose, immunoprecipitations were performed for 4 hrs and the resulting precipitates were washed 3-4 times with the buffer used for cell extraction. Immunoblots were performed with antibody solutions in 5% milk and TBS (10 mM TrisCl (pH 8.0), 150 mM NaCl) and washes were done in TBS containing 0.05% Tween-20."}, "D5 cells": {"test_system": "D5 cells", "test": "Real-time RT-PCR of E3 ligase and PLC-γ1 mRNA levels in D5 cells", "format": "cell-based, murine", "settings": "ionomycin-treated T cells", "procedure": "Total RNA was prepared from untreated or ionomycin-pretreated D5 cells using Ultraspec reagent (Biotecx). cDNAs were synthesized from 2 μg of total RNA as template, using a cDNA synthesis kit (Invitrogen). Quantitative real time-PCR was performed in an I-Cycler (BioRad) using a SYBR Green PCR kit (Applied Biosystems). The sequences of the primer pairs are as follows:\nThermal cycling conditions were 95° C. for 5 min, then 40 cycles of 95° C., 65° C., and 72° C. for 30 sec each, terminating with a single cycle at 72° C. for 5 min. Signals were captured during the polymerization step (72° C.). A threshold was set in the linear part of the amplification curve, and the number of cycles needed to reach it was calculated for each gene. Melting curve analysis and agarose gel electrophoresis were performed to test the purity of the amplified bands. Normalization was performed by using L32 levels as an internal control for each sample. The ratio of mRNA levels in ionomycin-treated or ionomycin/CsA treated to untreated samples were determined."}, "HEK 293 cells": {"test_system": "HEK 293 cells", "test": "PLC-γ1 ubiquitination in transfected HEK 293 cells", "format": "cell-based", "settings": "3 μM ionomycin for 30 min", "procedure": "FIG. 17C is a chart and a set of immunoblots illustrating that Itch induces mono-, di- and poly-ubiquitination of PLC-γ1. HEK 293 cells were transfected in duplicate with expression vectors coding for HA-tagged ubiquitin, AU.1-tagged PLC-γ1 and/or myc-tagged Itch as indicated, and one culture of each pair was stimulated with 3 μM ionomycin for 30 min before cell extraction. Cell extracts were immunoprecipitated with AU.1 antibodies and analyzed for ubiquitin-modified or total immunoprecipitated PLC-γ1 (upper two panels), or were directly analyzed for PLC-γ1 and Itch expression by immunoblotting (lower two panels).\nas §2, with “The extent of anergy induction was evaluated by intracellular cytokine staining or in standard proliferation assays (id.). Restimulation of D5 cells was done with 1 μg/ml anti-CD3 with or without 2.5 μg/ml anti-CD28 or with 20 nM PMA or 1 μM Ionomycin or both. HEK 293 cells were grown and transfected with Ca2+ phosphate using standard protocols.” left out"}, "[1]": {"test_system": "Th1 cells from BALB/c mice", "test": "Pulse-chase of PKCθ in Th1 cells", "format": "cell-based", "settings": "ionomycin 16 h, pulse-chase with plate-bound anti-CD3", "procedure": "FIG. 21 is a set of autoradiograms illustrating calcineurin-dependent degradation of PKCθ in anergic T cells. Th1 cells from BALB/c mice were left untreated or pretreated with ionomycin for 16 h, pulse-labeled for 2 h with ^35S cysteine/methionine, washed and stimulated with plate-bound anti-CD3 antibody during the indicated chase periods. PKCθ immunoprecipitates were analyzed by autoradiography.\nCD4 cells were isolated via dynal beads selection, cells were starved for 1 hr in cysteine/methionine free media and incubated for 2 hrs with 100 μCi/ml 35S-cysteine and -methionine. Cells were washed, resuspended in complete media and stimulated with 2 μg/ml anti-CD3 on crosslinking antibody coated plates. Cells were extracted in RIPA buffer and immunoprecipitations performed as described above. Immunoprecipitates were resolved on SDS-PAGE, that were treated with Enhance solution (NEN), dried and used for autoradiographs. Densitometric analysis was performed using IQ-Mac vs 1.2 software."}, "[2]": {"test_system": "TH1 cells from 5CC7 TCR-transgenic mice", "test": "Immune synapse formation by 5CC7 TCR-transgenic TH1 cells on lipid bilayers", "format": "cell-based", "settings": "5CC7 T cells pretreated with ionomycin for 16 h", "procedure": "as §1\nThe formation of immune synapses was evaluated as described for the experiments shown in FIG. 19, with TH1 cells from wild-type or Cblb−/− 5CC7 TCR-transgenic mice and lipid bilayers displaying ICAM-1 and I-Ek pigeon cytochrome C (PCC) molecules. […] Below the image series is a histogram that quantifies the imaging results. […]"}},
  "note": "Where a SMILES comes first, the peptide text is derived from it. The star is where a group is joined. Cbz = O=C(OCc1ccccc1)*",
  "data": [
    {"smiles": "COc1ccc2c(c1)CC[C@@H]1[C@@H]2CC[C@]2(C)[C@@H](NCCCCCCN3C(=O)C=CC3=O)CC[C@@H]12", "note": "[U73122]", "values": [
      {"measurement": "U73122 concentrations at which the effects were observed", "setting": "AND T cell blasts; 3 independent experiments", "value": "0.1 to 1", "unit": "µM"},
      {"measurement": "effect on established mature synapses", "setting": "AND T cell blasts; added after mature synapses formed", "value": "disintegration of the outer LFA-1 ring"}
    ]},
    {"smiles": "CC(C)C[C@@H](C=O)NC(=O)[C@H](CC(C)C)NC(=O)[C@H](CC(C)C)NC(=O)OCc1ccccc1", "note": "[MG132] (Cbz-Leu-Leu-Leu-aldehyde)", "values": [
      {"measurement": "PLC-γ1 degradation", "setting": "D5 T cells; ionomycin 16 h, then incubation with 10 μM MG132", "value": "did not prevent"},
      {"measurement": "accumulation of a modified (mono-ubiquitinated) form of PKCθ", "setting": "D5 T cells; only in anergized T cells, long exposure", "value": "increased the accumulation"}
    ]},
    {"smiles": "C[C@H](CCC(=O)O)C[C@H](C)C[C@H](C)C(=O)/C=C(\\O)[C@H](C)C[C@H](C)C/C=C/[C@@H](C)[C@@H](O)[C@@H](C)[C@@H](O)C[C@@H]1CC[C@@](C)([C@H]2CC[C@@](C)([C@@H](C)O)O2)O1", "note": "[ionomycin]", "values": [
      {"measurement": "PLC-γ1 mRNA levels", "setting": "D5 cells", "value": "remained constant"},
      {"measurement": "PLC-γ1 ubiquitination", "setting": "HEK 293 cells", "value": "induced PLC-γ1 ubiquitination"},
      {"measurement": "PKCθ turnover versus mock-treated T cells", "setting": "[1]", "value": "significantly more rapidly"},
      {"measurement": "PLC-γ1, PKCθ and RasGAP protein levels", "setting": "D5 T cells; D5 T cells, ionomycin pretreatment followed by cell-cell contact, immunoblot", "value": "pronounced decrease"},
      {"measurement": "increase in total protein ubiquitination", "setting": "D5 T cells; ionomycin pretreatment, D5 T cells", "value": "~2", "unit": "fold"},
      {"measurement": "Cbl-b protein induction", "setting": "D5 T cells; ionomycin-treated D5 cells", "value": "even more highly induced"},
      {"measurement": "Itch protein levels, increase", "setting": "D5 T cells; ionomycin-treated D5 cells", "value": "~3", "unit": "fold"},
      {"measurement": "Nedd4 protein levels", "setting": "D5 T cells; ionomycin-treated D5 cells", "value": "no change"},
      {"measurement": "Tsg101 protein levels, increase", "setting": "D5 T cells; ionomycin-treated D5 cells", "value": "~3", "unit": "fold"},
      {"measurement": "synapse stability", "setting": "[2]", "value": "synapse disorganization"},
      {"measurement": "time to form the mature synapse on contact with the bilayer", "setting": "[2]", "value": "< 5", "unit": "min"}
    ]}
  ]
}
